What was measured:
rat orexin 1 receptor = rat orexin 1 receptor (Rattus norvegicus, UniProt P56718); assay: Rat orexin 1 receptor radioligand binding (competitive); details: HEK293 cells stably expressing rat orexin 1 receptor; 4 nM radioligand; averages of 2-20 runs; read-out: rOX1 Ki
In short: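 Competition binding used HEK293 cells expressing rat OX1 or CHO cells expressing human OX1, with 4 nM final [3H]-labelled thiazolyl-oxadiazolyl-pyrrolidinyl methanone radioligand in PBS. Compounds were tested at 7 concentrations (0.1 nM–10 μM) for 60 min at room temperature, then filtered; 10 μM almorexant defined nonspecific binding. Ki was derived from the one-site IC50 and the radioligand Kd.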

human orexin 2 receptor = human orexin 2 receptor (Homo sapiens (Human), UniProt O43614); assay: Human orexin 2 receptor radioligand binding ([3H]-EMPA competition); details: HEK293 stably expressing human orexin 2 receptor; 2 nM [3H]-EMPA; averages of 2-20 runs; read-out: hOX2 Ki
human orexin 2 receptor, sequence (O43614 whole entry): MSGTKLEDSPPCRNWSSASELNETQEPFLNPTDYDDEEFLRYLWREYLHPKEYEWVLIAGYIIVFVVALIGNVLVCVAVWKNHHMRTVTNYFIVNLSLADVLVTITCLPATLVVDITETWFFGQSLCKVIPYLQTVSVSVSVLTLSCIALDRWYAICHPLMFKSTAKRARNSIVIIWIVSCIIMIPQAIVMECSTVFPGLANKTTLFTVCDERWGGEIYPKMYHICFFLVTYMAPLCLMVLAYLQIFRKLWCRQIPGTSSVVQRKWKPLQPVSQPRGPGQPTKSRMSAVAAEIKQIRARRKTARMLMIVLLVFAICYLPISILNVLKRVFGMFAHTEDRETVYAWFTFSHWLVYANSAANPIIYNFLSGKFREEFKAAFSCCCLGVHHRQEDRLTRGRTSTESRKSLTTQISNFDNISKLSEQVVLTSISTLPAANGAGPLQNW
In short: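 Membranes-free whole HEK293 cells stably expressing human OX2 receptor incubated with [3H]-EMPA and compound (7 concentrations, 0.1 nM–10 μM, ≤0.1% DMSO) for 60 min at room temperature; nonspecific binding with 10 μM almorexant. Filtration and scintillation counting; one-site IC50 converted to Ki using predetermined Kd, triplicates averaged over 2-20 runs.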

human orexin 1 receptor = human orexin 1 receptor (Homo sapiens (Human), UniProt O43613); assay: Human orexin 1 receptor radioligand binding (competitive); details: CHO cells stably expressing human orexin 1 receptor; 4 nM radioligand; averages of 2-20 runs; read-out: hOX1 Ki
human orexin 1 receptor, sequence (O43613 whole entry): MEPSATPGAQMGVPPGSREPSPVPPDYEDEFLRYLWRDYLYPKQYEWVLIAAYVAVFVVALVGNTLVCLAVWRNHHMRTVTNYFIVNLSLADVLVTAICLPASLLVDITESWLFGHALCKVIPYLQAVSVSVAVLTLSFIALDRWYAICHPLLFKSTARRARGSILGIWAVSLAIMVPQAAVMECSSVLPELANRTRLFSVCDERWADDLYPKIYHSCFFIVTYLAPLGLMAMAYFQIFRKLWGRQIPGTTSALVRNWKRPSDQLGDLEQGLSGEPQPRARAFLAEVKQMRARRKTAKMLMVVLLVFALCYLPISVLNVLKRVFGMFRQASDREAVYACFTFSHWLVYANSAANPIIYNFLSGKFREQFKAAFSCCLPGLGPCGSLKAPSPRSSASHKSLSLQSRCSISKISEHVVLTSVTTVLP
Procedure: The in vitro affinity of the compounds of the invention for the rat/human orexin 1 and human orexin 2 receptors was determined by competitive radioligand binding using [^3H](1-(5-(2-fluoro-phenyl)-2-methyl-thiazol-4-yl)-1-((S)-2-(5-phenyl-(1,3,4)oxadiazol-2-ylmethyl)-pyrrolidin-1-yl)-methanone) (Langmead et al., 2004) and [^3H]EMPA (n-ethyl-2[96-methoxy-pyridin-3-yl)-(toluene-2-sulfonyl)-amino]-N-pyridin-3-ylmethyl acetamide), respectively (Langmead et al., 2004, British Journal of Pharmacology 141:340-346; Malherbe et al., 2004, British Journal of Pharmacology 156:1326-41).
Data are analyzed using pc-Sandy macro and graphed on Graphpad Prism 5. For analysis, each concentration point is averaged from triplicate values and the averaged values are plotted on Graphpad Prism. The IC50 was determined by applying the following equation (GraphPad Prism 5.0, San Diego) for one site competition where X=log (concentration) and Y=specific binding. Top denotes the total [^3H]— (1-(5-(2-fluoro-phenyl)-2-methyl-thiazol-4-yl)-1-((S)-2-(5-phenyl-(1,3,4)oxadiazol-2-ylmethyl)-pyrrolidin-1-yl)-methanone) binding, bottom denotes the nonspecific [^3H]— (1-(5-(2-fluoro-phenyl)-2-methyl-thiazol-4-yl)-1-((S)-2-(5-phenyl-(1,3,4)oxadiazol-2-ylmethyl)-pyrrolidin-1-yl)-methanone) binding. Graphpad Prism calculates Ki value from IC50 and the pre-determined Kd values for [^3H]— (1-(5-(2-fluoro-phenyl)-2-methyl-thiazol-4-yl)-1-((S)-2-(5-phenyl-(1,3,4)oxadiazol-2-ylmethyl)-pyrrolidin-1-yl)-methanone) and [^3H]-EMPA. The Ki for each compound is then uploaded into 3DX. Each run comprises individual compounds in triplicate. The data in Table 1 and Table 2 represent averages from between 2-20 runs
Rat and Human Orexin 1 Receptor Radioligand Binding Studies
Human Embryonic Kidney 293 cells (HEK293) stably expressing rat orexin 1 receptor (Genebank accession number NM_001525) or Chinese ovary cells (CHO) stably expressing human orexin 1 receptor (Genebank accession number […]) were grown to confluency in DMEM (Hyclone, cat # SH30022), 10% FBS, 1× Pen/Strep, 1× sodium pyruvate, 10 mM HEPES, 600 μg/mL G418 and DMEM/F12 (Gibco, Cat #11039), 10% FBS, 1× Pen/Strep, 600 μg/mL G418 media, respectively on 150 cm^2 tissue culture plates, washed with 5 mM EDTA in PBS (HyClone Dulbecco's Phosphate Buffered Saline 1× with Calcium and Magnesium, Cat # SH30264.01, hereafter referred to simply as PBS) and scraped into 50 ml tubes. After centrifugation (2K×G, 5 min at 4° C.), the supernatant was aspirated and the pellets frozen and stored at −80° C. Cells were resuspended in PBS in the presence of 1 tablet of protease inhibitor cocktail (Roche, Cat. #11836145001) per 50 mL. […] Competition binding experiments in 96 well polypropylene plates were performed using [^3H]— (1-(5-(2-fluoro-phenyl)-2-methyl-thiazol-4-yl)-1-((S)-2-(5-phenyl-(1,3,4)oxadiazol-2-ylmethyl)-pyrrolidin-1-yl)-methanone) (Moraveck Corporation, specific activity=35.3 Ci/mmol), diluted to a 10 nM concentration in PBS (4 nM final). Compounds were solubilized in 100% DMSO (Acros Organics, Cat. #61042-1000) and tested over a range of 7 concentrations (from 0.1 nM to 10 μM). The final concentration of DMSO in the reactions is equal to or less than 0.1%. Total and nonspecific binding was determined in the absence and presence of 10 μM almorexant. The total volume of each reaction is 200 μL (20 μL of diluted compounds, 80 μL of [^3H]— (1-(5-(2-fluoro-phenyl)-2-methyl-thiazol-4-yl)-1-((S)-2-(5-phenyl-(1,3,4)oxadiazol-2-ylmethyl)-pyrrolidin-1-yl)-methanone) diluted in PBS and 100 μL of the cell suspension). Reactions were run for 60 min at room temperature and terminated by filtration through GF/C filter plates (PerkinElmer, Cat. #6005174) presoaked in 0.3% polyethylenimine using the cell harvester (PerkinElmer Filtermate). The plates were washed 3 times by aspirating 30 ml PBS through the plates. Plates were dried in 55° C. oven for 60 min, scintillation fluid was added, and the radioactivity was counted on a Topcount (Packard). […]

SMILES	Ki (rat orexin 1 receptor)	Ki (human orexin 2 receptor)	Ki (human orexin 1 receptor)
C[C@@H]1[C@H]2C[C@@H](Oc3ccc(C(F)(F)F)cn3)[C@H](C2)N1C(=O)c1cc(F)ccc1-n1nccn1 (relative stereo) [Example 29, (5-fluoro-2-(2H-1,2,3-triazol-2-yl)phenyl)((1S*,3R*,4R*,6R*)-3-methyl-6-((5-(trifluoromethyl)pyridin-2-yl)oxy)-2-azabicyclo[2.2.1]heptan-2-yl)methanone]	5 nM	0.836 µM	14 nM
C[C@@H]1[C@H]2C[C@@H](Oc3ccc(C(F)(F)F)cn3)[C@H](C2)N1C(=O)c1ncccc1-c1ncccn1 (relative stereo) [Example 32, ((1S*,3R*,4R*,6R*)-3-methyl-6-((5-(trifluoromethyl)pyridin-2-yl)oxy)-2-azabicyclo[2.2.1]heptan-2-yl)(3-(pyrimidin-2-yl)pyridin-2-yl)methanone]	6 nM	1.9 µM	8 nM
Cc1cnc(C(=O)N2[C@H](C)[C@H]3C[C@@H](Oc4ccc(C(F)(F)F)cn4)[C@@H]2C3)c(-c2ncccc2F)c1 (relative stereo) [Example 34, (3-fluoro-5′-methyl-[2,3′-bipyridin]-2′-yl)((1S*,3R*,4R*,6R*)-3-methyl-6-((5-(trifluoromethyl)pyridin-2-yl)oxy)-2-azabicyclo[2.2.1]heptan-2-yl)methanone]	11 nM	6.3 µM	14 nM
C[C@@H]1[C@H]2C[C@@H](Oc3ccc(C(F)(F)F)nc3)[C@H](C2)N1C(=O)c1cccc(F)c1-n1nccn1 (relative stereo) [Example 38, (3-fluoro-2-(2H-1,2,3-triazol-2-yl)phenyl)((1S*,3R*,4R*,6R*)-3-methyl-6-((6-(trifluoromethyl)pyridin-3-yl)oxy)-2-azabicyclo[2.2.1]heptan-2-yl)methanone]	216 nM	4.9 µM	283 nM
Cc1cccc(C(=O)N2[C@H](C)[C@H]3C[C@@H](Oc4ccc(C(F)(F)F)nc4)[C@@H]2C3)c1-n1nccn1 (relative stereo) [Example 39, (3-methyl-2-(2H-1,2,3-triazol-2-yl)phenyl)((1S*,3R*,4R*,6R*)-3-methyl-6-((6-(trifluoromethyl)pyridin-3-yl)oxy)-2-azabicyclo[2.2.1]heptan-2-yl)methanone]	90 nM	3.6 µM	123 nM
Cc1ccc(-n2nccn2)c(C(=O)N2[C@H](C)[C@H]3C[C@@H](Oc4cnc(C(F)(F)F)cn4)[C@@H]2C3)n1 (relative stereo) [Example 46, (6-methyl-3-(2H-1,2,3-triazol-2-yl)pyridin-2-yl)((1S*,3R*,4R*,6R*)-3-methyl-6-((5-(trifluoromethyl)pyrazin-2-yl)oxy)-2-azabicyclo[2.2.1]heptan-2-yl)methanone]	24 nM	4.3 µM	29 nM
C[C@@H]1[C@H]2C[C@@H](Oc3cnc(C(F)(F)F)cn3)[C@H](C2)N1C(=O)c1ncccc1-n1nccn1 (relative stereo) [Example 47, (3-(2H-1,2,3-triazol-2-yl)pyridin-2-yl)((1S*,3R*,4R*,6R*)-3-methyl-6-((5-(trifluoromethyl)pyrazin-2-yl)oxy)-2-azabicyclo[2.2.1]heptan-2-yl)methanone]	68 nM	> 10 µM	151 nM
Cc1cnc(-n2nccn2)c(C(=O)N2[C@H](C)[C@H]3C[C@@H](Oc4cnc(C(F)(F)F)cn4)[C@@H]2C3)c1 (relative stereo) [Example 50, (5-methyl-2-(2H-1,2,3-triazol-2-yl)pyridin-3-yl)((1S*,3R*,4R*,6R*)-3-methyl-6-((5-(trifluoromethyl)pyrazin-2-yl)oxy)-2-azabicyclo[2.2.1]heptan-2-yl)methanone]	23 nM	> 10 µM	30 nM

Reference: patent publication US9611262B2, “Substituted 2-azabicycles and their use as orexin receptor modulators” (JANSSEN PHARMACEUTICA NV, priority 2014, dated 2017)
